Like-named read-outs stand apart in the source and are kept apart here.
Columns and labels:
[1] = pharmacokinetic assay in SD rats (PO, IP, IV); assay type: in vivo; conditions: male, rat, plasma
Procedure: Three male SD rats (208–259 g, 6–8 weeks) per group were purchased from JH Laboratory Animal Co. LTD. All rats were raised under controlled temperature and humidity conditions and had free access to food and water. […] Each rat was injected with a combination solution at doses of 2, 10, and 5 mg kg^−1 for IV, PO, and IP, respectively. Blood samples collected in anticoagulant (K2EDTA)‐containing tubes at 0.25, 0.5, 1, 2, 4, 8, and 24 h after injection were centrifuged at 2000 × g at 4 °C for 5 min to obtain plasma. LC‐MS/MS analysis of samples was carried out using an ACQUITY UPLC HSS T3 1.8 µm column. The mobile phase was a mixture of phase A (0.1% formic acid in water) and phase B (0.1% formic acid in acetonitrile), which ran in gradient mode at a flow rate of 0.6 mL min^−1 at 60 °C. Mass spectra were obtained on an API6500 triple quadrupole equipped with an ESI source. Glipizide was used as an internal standard. The plasma concentrations of the compounds were analyzed, and the pharmacokinetic parameters were calculated via WinNonlin.

water solubility = assay type: physicochemical
[2] = set-up: method as in PMID 35868106; conditions: cited from earlier work
GRP75 = biological target: T1, GRP75 (Homo sapiens, UniProt P38646); assay: microscale thermophoresis (MST) binding assay; conditions: His-tagged recombinant GRP75 50 nmol L−1, n = 3; read-out: K d, binding to GRP75 (MST)
T1 construct: purchased Zoonbio Biotechnology Co., Ltd. (Nanjing, China); host or cells: E. coli
T1 sequence (P38646 47-679): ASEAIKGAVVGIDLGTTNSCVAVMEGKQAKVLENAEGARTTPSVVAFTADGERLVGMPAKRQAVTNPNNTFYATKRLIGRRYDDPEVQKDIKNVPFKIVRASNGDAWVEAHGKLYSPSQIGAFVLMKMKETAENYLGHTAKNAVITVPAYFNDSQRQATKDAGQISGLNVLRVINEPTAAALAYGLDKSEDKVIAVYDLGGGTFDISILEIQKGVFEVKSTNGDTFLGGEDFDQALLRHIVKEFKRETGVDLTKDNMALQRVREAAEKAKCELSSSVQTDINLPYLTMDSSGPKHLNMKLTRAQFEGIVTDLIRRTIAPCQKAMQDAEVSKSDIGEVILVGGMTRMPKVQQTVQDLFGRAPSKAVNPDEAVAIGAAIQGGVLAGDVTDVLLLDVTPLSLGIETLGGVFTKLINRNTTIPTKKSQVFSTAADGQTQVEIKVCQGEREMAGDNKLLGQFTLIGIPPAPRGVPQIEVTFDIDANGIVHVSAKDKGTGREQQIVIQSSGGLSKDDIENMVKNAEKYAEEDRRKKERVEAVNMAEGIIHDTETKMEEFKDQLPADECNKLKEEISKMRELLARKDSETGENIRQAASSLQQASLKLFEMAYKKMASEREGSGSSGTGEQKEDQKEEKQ
Procedure: Purified GRP75 protein was obtained by Zoonbio Biotechnology Co., Ltd. (Nanjing, China). Recombinant His‐tagged GRP75 protein was labeled with RED‐tris‐NTA second generation dye solution (MO‐L018, NanoTemper Technologies), according to the manufacturer's instructions. […] All samples were diluted in 1× PBST and contained the same amount of DMSO. The K d was determined in MO. Control using the K d fit.

[3] = test system: endometrial cancer organoid (ECO); assay: anti-proliferation in endometrial cancer organoid (ECO) model; assay type: cell-based; conditions: Homo sapiens, n = 3, mean ± SD
Procedure: ECO cultures were established as described previously.^[ [50] ^] Biopsies were cut into small pieces and extensively rinsed in phosphate‐buffered saline (PBS; HyClone, SH30256.01) containing 2% penicillin–streptomycin solution (Thermo Fisher Scientific, 10 010 023). Tissues were incubated in TrypLE (1x; Thermo Fisher Scientific, 12 604 013) supplemented with rock inhibitor for 20 min and then mechanically sheared to obtain a cell suspension. Digestion was stopped by dilution with equal amounts of DMEM/F12 and centrifuged at 1300 rpm for 5 min at 4 °C. The pellet was resuspended in Matrigel (Corning, 356 231, Corning, NY, USA), and 30 µL droplets were deposited in pre‐warmed 24‐well plates. ECOs were cultured as described previously.^[ [51] ^] For passages (performed every 10–20 d), organoids were recovered via liquefaction of the Matrigel drops with ice‐cold DMEM/F12 to ensure maximum organoid collection. Subsequently, ECOs were dissociated by repeated pipetting using TrypLE (in DMEM/F12 containing rock inhibitor), and the mixture was centrifuged at 1300 rpm. […]
EC cells were seeded into 96‐well plates at a concentration of 8 × 10^3 cells well^−1 in a 100 µL volume and cultured overnight. […] Absorbance at 450 nm was measured using a microplate reader (BioTek Synergy H1, Agilent Technologies, Santa Clara, CA, USA).

[4] = plasma protein binding using equilibrium dialysis; assay type: in vitro ADME
From the text: Plasma protein binding using equilibrium dialysis: A 96-well equilibrium dialysis device and HTD 96 a/b regenerated cellulose membrane strips with a molecular mass cutoff of 12–14 kDa were obtained from HTDialysis LLC (Gales Ferry, CT). The dialysis device was assembled following the manufacturer's instructions.

ISK and KLE cells [5] = assay: ATP production and α-KGDH activity in EC cells; assay type: cell-based, human; conditions: 10 µmol L−1
Procedure: The intracellular ATP levels were then checked using an enhanced ATP kit (Beyotime Biotechnology, Jiangsu, China), in accordance with the manufacturer's instructions. The entire cell population, including any floating cells, was collected, lysed, and boiled to release the ATP for the assay, and the results were compared with those from the DMSO group (%).
Intracellular α‐KGDH activity levels were measured using an α‐KGDH activity assay kit (Solarbio, Beijing, China) according to the manufacturer's instructions. Briefly, the entire cell population, including any floating cells, was collected, milled, and the absorbance measured. The α‐KGDH activity was then determined using Equation 2 as follows: (2) α−KGDH=U/10^4cell=4.962×ΔAdetermination−ΔAblank

[6] = test system: AMPK signaling in ISK and KLE cells; assay: Western blotting of p-AMPK and BIM; assay type: cell-based, human
From the text: EC cells were lysed in RIPA buffer (Epizyme, PC102, Ipsen Biopharmaceuticals, Cambridge, MA, USA) supplemented with a protease inhibitor cocktail. Samples were then quantified using a BCA kit (Epizyme, ZJ101), resolved by SDS‐PAGE, and blotted with primary antibodies and corresponding horseradish peroxidase‐conjugated secondary antibodies. The primary antibodies used included anti‐AMPK (1:1000 dilution), anti‐p‐AMPK (1:1000 dilution), anti‐BIM (1:1000 dilution), and anti‐GRP75 (1:1000 dilution) from Cell Signaling Technology (Beverly, MA, USA) and anti‐GAPDH (1:1500 dilution) from Yeason.

EC cells (ISK) = assay: MAM integrity and mitochondrial Ca2+ (TEM, confocal imaging) in EC cells; assay type: cell-based, human
Procedure: EC cells were fixed with 2.5% glutaraldehyde in sodium cacodylate buffer (0.1 mol L^−1, pH 7.2) at 4 °C overnight and post‐fixed for 1 h in 1% osmium tetroxide. Samples were stained for 1 h with 1% uranyl acetate in water before dehydration and embedding in the TAAB resin. Images were obtained using a transmission electron microscope.
Co‐localization analysis of the ER and mitochondria was conducted as previously described.^[ [64], [65] ^] EC cells grown on glass slides were loaded with Mito‐Tracker Red (0.3 µmol L^−1) and ER‐Tracker Green (1 µmol L^−1) at 37 °C for 30 min. Images were captured using a confocal microscope equipped with a 100× oil immersion objective (excitation at 488 and 594 nm, emission at 505–530 and >560 nm, respectively). Co‐localization of the ER and mitochondria was quantified as Manders’ co‐localization coefficient (MCC) using ImageJ software with a JACoP plugin. MCCs were calculated according to the fraction of mitochondrial pixels in contact with the ER (with a higher value representing more co‐localization). The co‐localization of Rhod‐2 (red fluorescent signal, 4 µmol L^−1) with Mito‐Tracker Green (0.3 µmol L^−1) in the live cells was performed as described above.

ISK and KLE cells [7] = assay: Seahorse glycolytic rate assay (ECAR); assay type: cell-based, human; conditions: 10 µM
Procedure: The ECAR and OCR were measured using the Seahorse XF Glycolysis Stress Test Kit or Seahorse XF Cell Mito Stress Test Kit on the Seahorse XF 96 Extracellular Flux Analyzer (Seahorse Bioscience, North Billerica, MA, USA), according to the manufacturer's introductions. […] Glucose, oligomycin, and 2‐deoxy‐glucose were used to determine the ECAR values, whereas oligomycin, carbonyl cyanide‐p‐trifluoromethoxyphenylhydrazone, and rotenone were used to measure the OCR.

[8] = test system: ISK cells xenograft tumors; assay: ISK tumor xenograft in nude mice; assay type: in vivo, BALB/c nude mice
From the text: All animal experiments were approved by the Committee on the Ethics of Animal Experiments of Shanghai Jiao Tong University, China (GKLW 2018–40). Female BALB/c nude mice (at least 5 weeks old) were procured from a commercial supplier (JieSiJie, Shanghai, China) through the Department of Laboratory Animal Science at Shanghai Jiaotong University School of Medicine. Mice were maintained under standard conditions and cared for according to the institutional guidelines for animal care. EC cells resuspended in PBS were mixed with Matrigel (BD Biosciences) in equal volume and then subcutaneously injected into the armpits of the nude mice. […] The dose of the compound injected into the mice was slightly adjusted following the methodology described in the previous study.^[ [7] ^] Every 2 d, the length (L) and width (W) of each tumor were measured twice using an external Vernier caliper for automatic reading, where the larger of the two measurements was defined as L and the smaller as W. The tumor volume was calculated using Equation 1, as follows: (1) V=0.52×L×W^2
HSP‐70 ELISA kits were purchased from YuBo Biology. […] Equal amounts of diluted protein supernatant were used, and the assay was conducted according to the manufacturer's instructions. The obtained absorbance values for protein levels were then transferred to in‐house data analysis software developed using the Windows Microsoft Excel platform to calculate the standard deviations for each group, and the average absorbance for each group was compared to the standardized controls. Each test group for each of the proteins of interest consisted of eight replicates. Assay‐specific controls were run with each plate to ensure optimal accuracy of the results.

[9] = IP 5 mg kg−1, read-out: AUC 0–24 h
[10] = IP 5 mg kg−1, read-out: AUC 24 h−∞
[11] = IV 2 mg kg−1, read-out: AUC 0–24 h
[12] = IV 2 mg kg−1, read-out: AUC 24 h−∞
[13] = PO 10 mg kg−1, read-out: AUC 0–24 h
[14] = PO 10 mg kg−1, read-out: F (oral bioavailability)

| SMILES | Cmax ([1]; IP 5 mg kg−1) [ng/mL] | Tmax ([1]; IP 5 mg kg−1) [h] | half-life ([1]; IP 5 mg kg−1) [h] | AUC(0-t) [1, 9] [ng·h/mL] | AUC(0-inf) [1, 10] [ng·h/mL] | bioavailability ([1]; IP 5 mg kg−1, read-out: F) [%] | clearance ([1]; IV 2 mg kg−1) [mL/min/kg] | half-life ([1]; IV 2 mg kg−1) [h] | AUC(0-t) [1, 11] [ng·h/mL] | AUC(0-inf) [1, 12] [ng·h/mL] | Cmax ([1]; PO 10 mg kg−1) [ng/mL] | Tmax ([1]; PO 10 mg kg−1) [h] | AUC(0-t) [1, 13] [ng·h/mL] | bioavailability [1, 14] [%] | extrapyramidal side effects [2] | IC50 [3] [µM] | also measured |
| --- | --- | --- | --- | --- | --- | --- | --- | --- | --- | --- | --- | --- | --- | --- | --- | --- | --- |
| Clc1ccc2c(c1)N(CCCCCN1CCC3(CCCCC3)CC1)c1ncccc1S2 [JX66] | 10 ± 1.49 | 1.67 ± 0.57 | 10.1 ± 1.38 | 140 ± 35.3 | 170 ± 37.4 | 42.5 ± 13 | 265 | 5.1 ± 1.69 | 144 ± 75.9 | 153 ± 75.9 | 3.8 ± 1.29 | 5.5 ± 4.33 | 16 ± 2.65 | 2.23 ± 0.37 | minor | 6.39 ± 0.87 | water solubility (water solubility): poor; Kd (GRP75): 37.6 µM |
| CN(C)CCCN1c2ccccc2Sc2ccc(Cl)cc21 [CPZ, chlorpromazine] | – | – | – | – | – | – | – | – | – | – | – | – | – | – | – | 58.2 ± 7.62 | % Bound (plasma protein binding rate) [4]: 98.44%; fraction unbound [4]: 0.0156 |
| CN1CCN(CCCCCN2c3cc(Cl)ccc3Sc3cccnc32)CC1 [JX57] | 3.04 ± 1.12 | 0.33 ± 0.14 | 3.06 ± 1.03 | 9.01 ± 7.03 | 14.2 ± 8.39 | 44.4 ± 34.6 | 2650 | 2.72 ± 0.9 | 8.12 ± 4.13 | 13.9 ± 5.43 | 11.3 ± 4.57 | 0.41 ± 0.14 | 41.5 ± 15.7 | 94.3 ± 46.9 | minor | – | cellular ATP levels (ISK and KLE cells [5]): reduced; α‐ketoglutarate activity (ISK and KLE cells [5]): reduced; p‐AMPK expression and BIM expression [6]: increased; half-life ([1]; PO 10 mg kg−1): 4.03 ± 0.88 h; AUC(0-inf) ([1]; PO 10 mg kg−1, read-out: AUC 24 h−∞): 55.7 ± 24.3 ng·h/mL; ER–mitochondrial distance (TEM) (EC cells (ISK); EC cells (ISK), 10 µmol L−1): significantly expanded; [Ca2+]m levels (EC cells (ISK); EC cells, 10 µmol L−1, confocal Rhod-2/Mito-Tracker): decreased; glycolysis rate and glycolytic capacity (ECAR) (ISK and KLE cells [7]): markedly reduced; expression of GRP75 in xenograft tumors with ISK cells (ELISA) ([8]; 5 mg kg−1, n = 8): reduced; effects on GRP75-knockdown ISK tumor versus vehicle group ([8]; GRP75-deficient ISK cells in nude mice, 5 mg kg−1 i.p. daily, n = 6): not significantly different; anticancer effect in vivo on addition of the AMPK inhibitor compound C ([8]; JX57 5 mg kg−1 plus compound C 0.2 mg kg−1, n = 6): partially abolished; %Unbound [4]: 0.84% |

— PMC11022737, “Targeting GRP75 with a Chlorpromazine Derivative Inhibits Endometrial Cancer Progression Through GRP75–IP3R‐Ca^2+‐AMPK Axis” (Advanced Science, 2024)
